# Laboratory results reported in EPA's ToxValDB 9.5 (doi:10.2903/j.efsa.2019.5842).
# Legend:
# Oncorhynchus mykiss [1] = assay: LC10; higher = less toxic; conditions: chronic/long-term; mortality
# Daphnia magna = conditions: chronic/long-term; duration: 21 days; reproduction
# Oncorhynchus mykiss [2] = conditions: acute; duration: 96 hours; mortality
# Hyalella azteca = conditions: chronic/long-term; duration: 42 days
# Oryctolagus sp. = conditions: reproduction developmental; body weight
# Apis mellifera = conditions: acute, mortality
# Folsomia candida = conditions: chronic/long-term; duration: 28 days; reproduction
# Tagia sp. = conditions: chronic/long-term; duration: 56 days; reproduction
compound,measurement,setting,value
CCCCN(CC)c1c([N+](=O)[O-])cc(C(F)(F)F)cc1[N+](=O)[O-] [Benfluralin],LC10,Oncorhynchus mykiss [1],0.0013 µg/mL
same,NOEC,Daphnia magna,0.046 mg/L
same,LD50,"Colinus virginianus; acute, oral, mortality",> 2000 mg/kg-day
same,NOEL,Colinus virginianus; reproduction developmental,6.7 mg/kg-day
same,LD50,"Rattus norvegicus; acute, oral, mortality",> 5000 mg/kg-day
same,NOAEL,"Rattus norvegicus; chronic, duration: 2 years, histopathology: nonneoplastic",0.5 mg/kg-day
same,NOAEL,"Rattus norvegicus; reproduction developmental, body weight",5.5 mg/kg-day
same,LC50,Oncorhynchus mykiss [2],0.081 µg/mL
same,NOEC,Hyalella azteca,83 mg/kg
same,NOAEL,Oryctolagus sp.,50 mg/kg-day
same,LD50,Apis mellifera; dermal,> 100 µg/piece
same,LD50,"Apis mellifera; oral, unspecified",> 111 µg/piece
same,NOEC,Folsomia candida,5.5 mg/kg
same,NOEC,Tagia sp.,15.4 mg/kg
